“And” between values parts separate entries of the source, which are not always exact repeats. Identical values can stand only once. “Also recorded” adds a separate entry of the source.
What was measured:
[1] = Measured plasma concentrations of daidzein from dietary intake; type: in vivo, human; conditions: PoD 10 nM / 3.14 µM
Source text: Daidzein is present in soy-derived foods and is consumed in large amounts in Asian countries.

Estrogen ERα (h) = Estrogen ERα (h) (Homo sapiens, UniProt P03372); conditions: pharmacology profiling; LOEC = 10% of maximum reference compound activity
TRβ = target: T1, TRβ (Homo sapiens, UniProt P10828); assay: TRβ CALUX assay (thyroid)
T1 sequence (P10828 1-461): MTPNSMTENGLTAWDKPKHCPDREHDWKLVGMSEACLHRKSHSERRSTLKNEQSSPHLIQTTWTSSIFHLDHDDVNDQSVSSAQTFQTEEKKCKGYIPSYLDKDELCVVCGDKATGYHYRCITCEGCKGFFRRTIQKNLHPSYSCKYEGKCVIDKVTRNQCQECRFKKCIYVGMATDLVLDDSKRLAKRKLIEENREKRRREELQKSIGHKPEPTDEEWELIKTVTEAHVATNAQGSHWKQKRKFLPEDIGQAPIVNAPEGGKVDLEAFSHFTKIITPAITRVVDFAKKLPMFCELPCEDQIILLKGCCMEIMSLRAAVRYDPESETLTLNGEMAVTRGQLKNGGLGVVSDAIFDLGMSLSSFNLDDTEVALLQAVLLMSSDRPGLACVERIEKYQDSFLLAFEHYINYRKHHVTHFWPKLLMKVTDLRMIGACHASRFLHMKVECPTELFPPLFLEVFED
Protocol: using the U2-OS based CALUX cytotox bioassay. The cytotoxicity of each test chemical was assessed using the U2-OS based cytotoxicity CALUX bioassay. Concentrations causing >20% reduction of luminescence were considered cytotoxic.
cytotoxicity (relative induction in the cytotoxicity CALUX bioassay > 80%) were used for final
evaluation of analysis results.
induction in the cytotox CALUX bioassay > 80%) were used for final evaluation of analysis results.
All analysis results were expressed in molar (M) final in well.
For determination of the (anti-)ERα, (anti-)AR and (anti-)TRβ CALUX activities, CALUX cells were
seeded in assay medium. Following exposure of the CALUX cells to serial dilutions of the
compounds in triplicate for 24 h, the induction of luciferase production was quantified by measuring
luminescence following addition of the substrate luciferin. For antagonist assays, a fixed
concentration of assay agonist was present in each well, to generate a basal signal. On each plate, a
complete calibration curve for each respective bioassay was also analysed using the relevant reference
compounds. For the analyses in the presence of rat liver S9, 0.03% (v/v) of PB/BNF induced rat liver
S9 mix (including NADPH and an NADPH-regenerating system) was added to the cells directly after
addition of the compounds, which remained there for the duration of the exposure period (24 h) (van
Relative light units (RLUs) of the CALUX assays were analysed as follows. For agonist assays,
background values (exposure to DMSO only) were subtracted, and the maximum activity of the
assay’s reference compound was set to 100%. For antagonist assays, the basal signal (exposure to fixed concentration of agonist only) was set to 100%. Activity of the samples was scaled accordingly,
resulting in expression of the data as “percentage of maximum reference response”. Graphs were
generated using the statistical software package GraphPad Prism V5.03. Using these graphs, lowest
effect concentrations (LOECs) and PC50 concentrations were determined; LOEC is defined as the
maximum reference compound activity for agonist assays, and 20% of the maximum reference
compound activity for antagonist assays. The PC50 is defined as the concentration where the activity
of the sample equals 50% of the maximum activity of the assay’s reference compound.

SMILES | BER, highest measured dietary plasma concentration [1] | ERα LOEC (binding to receptor) (Estrogen ERα (h)) | TRß thyroid LOEC, +S9 (TRβ; +S9 (rat liver)) [Log M] | TRβ Agonist/antagonist effect (TRβ; CALUX) | TRß thyroid LOEC, −S9 (TRβ; −S9) [Log M]
O=c1c(-c2ccc(O)cc2)coc2cc(O)ccc12 [Daidzein, DAIDZEIN] | 0.003 | 35 nM and 35.2 nM |  |  | 
O=c1c(-c2ccc(O)cc2)coc2cc(O)cc(O)c12 [Genistein, 5,7-DIHYDROXY-3-(4-HYDROXYPHENYL)-4-BENZOPYRONE] |  |  | >−5 | did not activate or antagonize the thyroid receptor-β; also recorded: No effect | >−5
